Assays:
[1] = cited from earlier work
[2] = HPLC evaluation of impurities after high temperature short time (HTST) sterilization; format: physicochemical; details: Fo exposures up to 24
From the text: The formulation to be sterilized was passed through narrow lines of pharmaceutical quality stainless steel in which the sample was rapidly raised to an elevated temperature, maintained at this holding temperature for a period of time, then rapidly returned to ambient temperature. Parameters described in Table 1 are the BMRT (bulk mean retention time), that is the time between the sample being raised above ambient temperature and being returned to ambient temperature, and the FFERT, the time for which the sample is maintained at the elevated temperature. […] The theoretical kill rate, Fo, may be calculated from the FFERT and the elevated temperature. The value of Fo is optimally greater than 10, but values greater than 8 are acceptable for the production of sterile formulations.
This example was carried out to evaluate the effect of HTST on the chemical purity of pharmaceutical preparations by assessing the levels of degradation obtained in samples exposed to varying Fo (effective killing times) times. For the purposes of these experiments, budesonide suspensions were used in the evaluation.
The samples were then evaluated using high performance liquid chromatography to assess the level of impurities present.

[3] = Treatment with high intensity light (Pure-bright process); format: physicochemical; details: light at 900 times the intensity of sunlight at sea level; formulations produced as in Example 1
From the text: An alternative method of sterilization of a budesonide suspension is treatment with high intensity light. The so-called “Pure-bright” process allows treatment with light at 900 times the intensity of sunlight at sea level.

CCCC1O[C@@H]2C[C@H]3[C@@H]4CCC5=CC(=O)C=C[C@]5(C)[C@H]4[C@@H](O)C[C@]3(C)[C@]2(C(=O)CO)O1 (stereo partly drawn) [budesonide]
stability to gamma-irradiation [1]: destroyed | effect on chemical stability [2]: no adverse effect | stability of budesonide to high intensity light [3]: completely destroyed
